Reference: patent publication US9000027B2, “Chk1 suppresses a caspase-2 apoptotic response to DNA damage that bypasses p53, bcl-2 and caspase-3” (Dana-Farber Cancer Institute, Inc., priority 2008, dated 2015)
“Also recorded” adds a separate entry of the source.

Key:
ATR = experiment: Western blot of ATR activity (Chk1 phosphorylation at Ser317) in HeLa cells; assay type: cell-based, human; conditions: 10 Gy IR+Gö6976 1 μM
Experimental: (§1) Protein extract (5-60 μg) was added to 4× gel loading buffer and 10× denaturing solution (Invitrogen) in appropriate proportions, and samples were incubated at 70° C. for 10 min. Samples were run at 200V for 1 hr on a 4-12% Bis-tris gradient gel (Invitrogen). After electrophoresis, samples were transferred for 1.5 hr (350 mA) to a Nitrocellulose membrane (Millipore) using a submerged transfer apparatus (Bio-Rad). Membranes were then blocked with 5% milk in Tris-buffered saline with 0.1% tween (TBST) and probed overnight at 4° C. with the following antibodies: anti-zebrafish Chk1 (diluted 1:200), anti-zebrafish Chk2 (1:200), anti-P-Cdc2 (1:1000), anti-actin (1:2000), anti-human ATR (1:500) and Stressgen anti-human-caspase-3 (1:500) for zebrafish immunoblots; and anti-caspase-2 (1:200), Upstate anti-caspase-3 (1:500), anti-P-ATM (1:500), anti-ATM (1:500), Santa Cruz anti-human Chk1 (1:1000), Santa Cruz anti-human Chk2 (1:1000), anti-P-Chk1 (1:500), anti-P-Chk2 (1:500), anti-P-H2A.X (1:2000), anti-P-cdc25C (1:1000), anti-P-HSP27 (1:1000), anti-HSP27 (1:1000), anti-P-Cdc2 (1:1000), anti-p53 (1:1000) and anti-GAPDH (1:5000) for immunoblots of human tumor cell lysates. Detailed references for all primary antibodies can be found in the ‘Antibodies’ section elsewhere herein.

caspase-2 = experiment: Western blot of caspase-2 cleavage in human cancer cells; assay type: cell-based
Experimental: as §1

caspase-3 = experiment: Western blot of cleaved caspase-3 in HeLa cells; assay type: cell-based, human; conditions: 10 Gy, 24 hpIR, Gö6976 1 μM
Experimental: as §1

human cancer cell lines = experiment: Annexin V (+)/PI (-) apoptosis assay in human cancer cell lines; assay type: cell-based
Experimental: For the Annexin V assay, 2.0×10^5 cells treated with IR (0 or 10 Gy) and/or Gö6976 (0 or 1 μM) for 48 h were washed with cold-PBS and resuspended in staining buffer containing propidium iodide (PI) and fluorescein isothiocynate (FITC)-conjugated anti-AnnexinV antibody (MEBCYTO apoptosis kit, MBL international, MA). After 30 min incubation at room temperature, cells were analyzed by flow cytometry (FACScaliber, BD Bioscience, San Jose, Calif.) and CellQuest analysis program (BD Bioscience). The cells in PI-negative and AnnexinV-positive fraction were evaluated as apoptosis. Data were collected from two independent experiments in which each condition (shRNA, presence or absence of Gö6976) was analyzed in triplicate.

Chk1 = target: T1, Chk1 (Homo sapiens, UniProt O14757); experiment: Western blot of Chk1 activity (Cdc2 Tyr15 and CDC25C Ser216 phosphorylation) in irradiated HeLa cells; assay type: cell-based; design: endogenous in cells; host or cells: HeLa; conditions: 10 Gy
T1 sequence (O14757 1-476): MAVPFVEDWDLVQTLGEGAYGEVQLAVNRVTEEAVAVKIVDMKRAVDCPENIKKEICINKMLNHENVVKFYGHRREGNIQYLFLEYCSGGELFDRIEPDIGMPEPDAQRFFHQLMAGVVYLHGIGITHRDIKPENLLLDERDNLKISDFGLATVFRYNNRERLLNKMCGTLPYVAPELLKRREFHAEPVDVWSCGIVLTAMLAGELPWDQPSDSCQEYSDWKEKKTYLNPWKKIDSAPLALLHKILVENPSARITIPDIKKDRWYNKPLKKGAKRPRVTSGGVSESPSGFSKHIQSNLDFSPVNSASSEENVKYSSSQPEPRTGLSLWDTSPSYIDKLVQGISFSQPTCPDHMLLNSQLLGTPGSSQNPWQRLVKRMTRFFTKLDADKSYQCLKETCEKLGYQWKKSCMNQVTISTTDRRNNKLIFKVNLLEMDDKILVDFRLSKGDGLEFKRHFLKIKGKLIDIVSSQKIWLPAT
Experimental: as §1

myeloid cells = experiment: Quantification of myeloid cells (mpo/l-plastin in situ hybridization) in irradiated embryos; assay type: in vivo, zebrafish; conditions: p53^e7/e7 background, IR, 28 hpf
Excerpt: FIG. 2 provides a series of fluorescent images, western blot images, in situ hybridization images and two sets of graphs as outlined below. chk1 knockdown radiosensitizes p53 mutants but is otherwise compatible with normal zebrafish development. (A) Fluorescence images of representative embryos of indicated genotypes+/−chk1 MO after 0- or 12.5-Gy IR. 5 bpmmMO, 5-base-pair mismatch MO. (B) Quantified AO responses of indicated genotypes with or without IR (12.5 Gy) and chk1 MO. Gray bars, p53^+/+ background; black bars, p53^e7/e7 background. AO staining was quantified in ≧8 embryos per condition, with ≧1000 embryos scored. All data are reported as means+/−SEM. ***P<0.0001 (two-tailed Student's t-test). […] (E) Fluorescence images of representative embryos of indicated genotypes. p53^e6 is the N168K mutation, corresponding to human residue 200. p53MO, MO against the p53 5′UTR. (F) Fluorescence images of live transgenic embryos injected with the indicated MOs at the 1-cell stage and expressing EGFP in the notochord (top, embryos photographed at 24 hpf) or in myeloid progenitors (bottom, embryos photographed at 16.5 hpf). […] (G) Quantification of myeloid cells in 28 hpf embryos generated as indicated (x-axis) and processed as in panel H. Gray bars, p53^+/+ background; black bars, p53^e7/e7 background. mpo/lplastin staining was quantified in 15 embryos per condition. […]

[1] = TP53+/+ HCT116 cells, IR+Gö6976

Cn1c2ccccc2c2c3c(c4c5ccccc5n(CCC#N)c4c21)CNC3=O [Gö6976] was tested, and the “phosphorylated Chk1 at Ser317 (readout for ATR activity)” value (ATR) was “synergistic increases”, the caspase-2 activation (caspase-2; HeLa, 2 Gy, Gö6976 500 nM for 24 hbIR) was “synergistic activation of caspase-2 was observed” and the caspase-2 cleavage (caspase-2; HeLa, 2 or 3.2 Gy, Gö6976 1 μM applied 1 hbIR) was “no detectable cleavage”. For the same molecule, the caspase-2 activation (caspase-2; HeLa, 3.2 Gy, Gö6976 1 μM applied 6 hbIR) was “as efficiently as the standard 10 Gy protocol”, the caspase-2 cleavage (caspase-2; HeLa, 10 Gy, 24 hpIR, Gö6976 1 μM applied 1 hbIR) was “readily apparent; also recorded: strong caspase-2 cleavage” and the caspase-2 cleavage (caspase-2; [1]) was “inability to cleave caspase-2”. The “caspase-2 cleavage versus single- or no-treatment controls” value (caspase-2; TP53 null or mutant lines (TP53-/- HCT116, SAOS2, MDA-MB-435, LN-428), 10 Gy IR+Gö6976) was “increases in caspase-2 cleavage”, the “levels of cleaved caspase-3” value (caspase-3) was “negligible” and the apoptosis (human cancer cell lines; [1]) was “moderate, yet significant increase in apoptosis”. The “apoptosis versus single- or no-treatment controls” value (human cancer cell lines; TP53 null or mutant lines, 10 Gy IR+Gö6976, 48 hpIR) was “increases in caspase-2 cleavage and apoptosis”, the Chk1 inhibition (Chk1; 1 μM) was “potent Chk1 inhibition” and the “phosphorylation of Chk1 readouts CDC2 and CDC25C” value (Chk1; increasing concentrations, 24 hpIR) was “inhibited the phosphorylation of CDC2 and CDC25C”.
With “chk1 MO: morpholino against zebrafish chk1 atg/5'UTR, aggcacagccattatgcaatcttcg (SEQ ID NO: 11) (AGGCACAGCCATTATGCAATCTTCG; all phosphorodiamidate morpholino (PMO))” the “average reduction in myeloid cell numbers” value (myeloid cells) was 2 fold.
